Test results: ChEMBL document CHEMBL5385920, “Discovery of P450-Modified Sesquiterpenoids Levinoids A-D through Global Genome Mining” (J Nat Prod, 2024)
Active and inactive are the calls of the source. The calls are words filed in the database; no cut-off is given here.

What was measured:
[1] = tested on: HT-22; test: Neuroprotective activity against glutamate-induced cytotoxicity in HT-22 cells assessed as increase in cell viability at 10 ug/ml measured after 24 hrs in presence of glutamate by CCK8 assay; format: functional, cell-based; settings: Mus musculus, dose 10.0 µg/ml
[2] = tested on: HT-22; test: Neuroprotective activity against glutamate-induced cytotoxicity in HT-22 cells assessed as increase in cell viability measured after 24 hrs in presence of glutamate by CCK8 assay; format: functional, cell-based; settings: Mus musculus, HT-22, 24 h
[3] = tested on: HT-22; test: Neuroprotective activity against glutamate-induced cytotoxicity in HT-22 cells assessed as increase in cell viability at 10 ug/ml measured after 24 hrs in presence of glutamate by CCK8 assay relative to control; format: functional, Mus musculus; settings: dose 10 µg/ml

## CC1=CC[C@@H](C(C)C)[C@H]2C=C(C(=O)O)CC[C@@H]12
[1]
  Activity: inactive

## CC1=CC[C@@H](C(C)C)[C@H]2C=C(C(=O)O)CC[C@@]12O
[2]
  EC50: ~21 µM
[3]
  Activity: 82%

## CC1=CC[C@@H](C(C)C)[C@H]2C=C(C(=O)O)[C@@H](O)C[C@@H]12
[1]
  Activity: inactive

## CC1=CC[C@@H](C(C)C)[C@@]2(O)C=C(C(=O)O)CC[C@@H]12
[1]
  Activity: inactive
